In patent US10710992B2, “Substituted pyridinones as bromodomain inhibitors” (Zenith Epigenetics Ltd., priority 2014, dated 2020):

Columns and labels:
hIL-6 mRNA = experiment: Inhibition of hIL-6 mRNA transcription in LPS-stimulated U937 cells; assay type: cell-based; conditions: Homo sapiens, U-937; PMA-differentiated U937 cells, 1 h pretreatment, LPS 1 ug/mL, 3 h; read-out: IL-6 activity
Experimental: Human leukemic monocyte lymphoma U937 cells (CRL-1593.2) were plated at a density of 3.2×10^4 cells per well in a 96-well plate in 100 μL RPMI-1640 containing 10% FBS and penicillin/streptomycin, and differentiated into macrophages for 3 days in 60 ng/mL PMA ([…]) at 37° C. in 5% CO2 prior to the addition of compound. The cells were pretreated for 1 h with increasing concentrations of test compound in 0.1% DMSO prior to stimulation with 1 ug/mL lipopolysaccharide from Escherichia coli. Triplicate wells were used for each concentration. The cells were incubated at 37° C., 5% CO2 for 3 h before the cells were harvested. At time of harvest, media was removed and cells were rinsed in 200 μL PBS. Cells were harvested using the mRNA Catcher PLUS kit according to manufacturer's instructions. The eluted mRNA was then used in a one-step quantitative real-time PCR reaction using components of the RNA UltraSense™ One-Step Kit (Life Technologies) together with Applied Biosystems TaqMan® primer-probes for hIL-6 and Cyclophilin. Real-time PCR plates were run on a ViiA™ 7 real time PCR machine (Applied Biosystems), data was analyzed, normalizing the Ct values for hIL-6 to an internal control, prior to determining the fold expression of each sample, relative to the control.

hApoA-1 mRNA = experiment: Up-regulation of hApoA-1 mRNA transcription in Huh7 cells; assay type: cell-based, Human; conditions: EC170, Huh7 cells, 48 h
Experimental: In this example, hApoA-1 mRNA in tissue culture cells was quantitated to measure the transcriptional up-regulation of hApoA-1 when treated with a compound of the present disclosure.
Huh7 cells (2.5×10^5 per well) were plated in a 96-well plate using 100 μL DMEM per well, (Gibco DMEM supplemented with penicillin streptomycin and 10% FBS), 72 h before the addition of the compound. The cells are treated with increasing concentrations of the compound or DMSO (0.1%), and incubated at 37° C., 5% CO2 for 48 h. Spent media was removed from the Huh-7 cells and placed on ice for immediate use with the “LDH cytotoxicity assay Kit II” from Abcam. The cells remaining in the plate were rinsed with 100 μL PBS. Cells were harvested using the mRNA Catcher PLUS kit according to manufacturer's instructions. The eluted mRNA was then used in a one-step quantitative real-time PCR reaction, using components of the RNA UltraSense™ One-Step Kit (Life Technologies) together with Applied Biosystems TaqMan® primer-probes for hApoA-1 and Cyclophilin. Real-time PCR plates were run on a ViiA™ 7 real time PCR machine (Applied Biosystems), data was analyzed, normalizing the Ct values for hApoA-1 to an internal control, prior to determining the fold induction of each unknown sample, relative to the control.

Human AML MV-4-11 cells = experiment: Inhibition of cell proliferation in cancer cell lines (CellTiter Aqueous One); assay type: cell-based; conditions: Homo sapiens; MV4-11 cells, 72 h
Experimental: MV4-11 cells (CRL-9591) were plated at a density of 5×10^4 cells per well in 96 well flat bottom plates and treated with increasing concentrations of test compound or DMSO (0.1%) in IMDM media containing 10% FBS and penicillin/streptomycin. Triplicate wells were used for each concentration and a well containing only media was used as a control. Plates were incubated at 37° C., 5% CO2 for 72 h before adding 20 μL of the CellTiter Aqueous One Solution (Promega) to each well and incubated at 37° C., 5% CO2 for an additional 3-4 h. The absorbance was read at 490 nm in a spectrophotometer and the percentage of cell titer relative to DMSO-treated cells was calculated after correcting for background by subtracting the blank well's signal. IC50 values were calculated using the GraphPad Prism software.

[1] = target: T1, Brd4 bromodomain 1 (BRD4(1)) (Homo sapiens, UniProt O60885); experiment: Inhibition of tetra-acetylated histone H4 binding to BET bromodomain (HTRF/FRET); conditions: His-tagged bromodomain 200 nM, tetra-acetylated histone H4 peptide, 2 h room temperature
T1 construct: made in house; host or cells: E. coli BL21(DE3)
Experimental: Proteins were cloned and overexpressed with a N-terminal 6× His tag, then purified by nickel affinity followed by size exclusion chromatography. Briefly, E. coli BL21(DE3) cells were transformed with a recombinant expression vector encoding N-terminally Nickel affinity tagged bromodomains from Brd2, Brd3, Brd4. Cell cultures were incubated at 37° C. with shaking to the appropriate density and induced overnight with IPTG. The supernatant of lysed cells was loaded onto Ni-IDA column for purification. Eluted protein was pooled, concentrated and further purified by size exclusion chromatography. Fractions representing monomeric protein were pooled, concentrated, aliquoted, and frozen at −80° C. for use in subsequent experiments.
Binding of tetra-acetylated histone H4 and BET bromodomains was confirmed by a Homogenous Time Resolved Fluorescence Resonance Energy Transfer (HTRF®) method. N-terminally His-tagged bromodomains (200 nM) and biotinylated tetra-acetylated historic H4 peptide (25-50 nM, Millipore) were incubated in the presence of Europium Cryptate-labeled streptavidin (Cisbio Cat. #610SAKLB) and XL665-labeled monoclonal anti-His antibody (Cisbio Cat. #61HISXLB) in a white 96 well microtiter plate (Greiner). For inhibition assays, serially diluted test compound was added to these reactions in a 0.2% final concentration of DMSO. Duplicate wells were used for each concentration tested. Final buffer concentrations were 30 mM HEPES pH 7.4, 30 mM NaCl, 0.3 mM CHAPS, 20 mM phosphate pH 7.0, 320 mM KF, 0.08% BSA. After a 2 h incubation at room temperature, fluorescence was measured at 665 and 620 nm with a SynergyH4 plate reader (Biotek). The binding inhibitory activity was shown by a decrease in 665 nm relative to […] fluorescence. IC50 values were determined from a dose response curve.

[2] = system: c-myc in Human AML MV4-11 cells; experiment: Inhibition of cMYC expression in cancer cell lines (mRNA, real-time PCR); assay type: cell-based; conditions: Homo sapiens, 3 h, cMYC mRNA normalized to Cyclophilin
Experimental: MV4-11 cells (CRL-9591) were plated at a density of 2.5×10^4 cells per well in 96 well U-bottom plates and treated with increasing concentrations of test compound or DMSO (0.1%) in IMDM media containing 10% FBS and penicillin/streptomycin, and incubated for 3 h at 37° C. Triplicate wells were used for each concentration. Cells were pelleted by centrifugation and harvested using the mRNA Catcher PLUS kit according to manufacturer's instructions. The eluted mRNA isolated was then used in a one-step quantitative real-time PCR reaction, using components of the RNA UltraSense™ One-Step Kit (Life Technologies) together with Applied Biosystems TaqMan® primer-probes for cMYC and Cyclophilin. Real-time PCR plates were run on a ViiA™ 7 real time PCR machine (Applied Biosystems), data was analyzed, normalizing the Ct values for cMYC to an internal control, prior to determining the fold expression of each sample, relative to the control.

Structure (SMILES) | IC50 (hIL-6 mRNA) | ApoA-1 activity (hApoA-1 mRNA) | IC50 (Human AML MV-4-11 cells) | IC50 [1] | IC50 [2]
Cc1noc(C)c1-c1c[nH]c(=O)c(Nc2ccccc2)c1 [Example 1, 5-(3,5-dimethylisoxazol-4-yl)-3-(phenylamino)pyridin-2(1H)-one] | 0.3 to 3 µM | ++ (EC170 value between 0.3 and 3 μM were deemed to be very active (++)) | 3 to 30 µM | 0.3 to 3 µM | 3 to 30 µM
Cc1noc(C)c1-c1c[nH]c(=O)c(Nc2cccnc2)c1 [Example 2, 5-(3,5-dimethylisoxazol-4-yl)-3-(pyridin-3-ylamino)pyridin-2(1H)-one] | 3 to 30 µM | + (EC170 value between 3 and 30 μM were deemed to be active (+)) | – | 3 to 30 µM | –
